Measurements from patent US20030110574A1, “Use of optical brighteners from the class of the stilbene compounds as antimicrobially active substances” (priority 2000, published 2003).

Tested on: bacterial mixture of Staphylococcus aureus ATCC 9144 and Escherichia coli NCTC 8196
Experiment: Antimicrobial activity in agar plates after irradiation with xenon light, viable bacteria counted
Format: cell-based
Protocol: Determination of Antimicrobial Activity of Tinopal CBS-X after Irradiation with Light
The optical brightener of the formula [drawing 28]
is incorporated in agar plates and subsequently inoculated with bacteria and irradiated with xenon light for 10 minutes or 30 minutes.
The test is used to detect antimicrobial activity by comparison with unirradiated samples.
To this end, a 1.5% stock solution in DMSO is prepared.
0.5 and 0.1 ml of this solution are added to 15 ml of liquid agar (final concentration: 500 and 100 ppm).
After solidification and drying, a bacterial mixture of Staphylococcus aureus and Escherichia coli is plated out on the agar (final concentration cfu/ml:˜10^5). The plates are fixed on cotton by means of double sided Scotch tape and are irradiated with a xenon lamp for 10 or 30 minutes.
Unirradiated agar plattes including 100 and 500 ppm of Tinopal CBS-X and agar plates without Tinopal are incubated as controls.
All plates were incubated at 37° C. for about 48 hours. After incubation, viable bacteria are counted (see Table 1).
Staphylococcus aureus ATCC 9144
Escherichia coli NCTC 8196
Cultures 18 to 24 hours in casein soymeal peptone broth diluted 1:5000 (Staph.) and 1:10,000 (E. coli) and mixed together
The table reports the number of colony-forming units of bacteria after 10 minutes' and 30 minutes' irradiation.

With `O=S(=O)([O-])c1ccccc1C=Cc1ccc(-c2ccc(C=Cc3ccccc3S(=O)(=O)[O-])cc2)cc1.[Na+].[Na+]` [Tinopal CBS-X] the “number of colony-forming units of bacteria” value (“number” below) (100 ppm in agar, control not irradiated with xenon light (t: 0′)) was 4.4 × 10^4 (t: 0′) colony-forming units, the “number” value (100 ppm in agar, irradiated with xenon light, 10 minutes, incubated 37° C. about 48 hours) was 2.3 × 10^4 colony-forming units and the “number” value (100 ppm in agar, irradiated with xenon light, 30 minutes, incubated 37° C. about 48 hours) was 5.1 × 10^2 colony-forming units. For the same molecule, the “reduction of the microorganisms compared with unirradiated plates and plates without Tinopal CBS-X” value (100 ppm or 500 ppm in agar nutrient medium, 30 minutes' irradiation with a xenon lamp) was “effective to substantially reduce the microorganisms”, the “number” value (500 ppm in agar, control not irradiated with xenon light (t: 0′)) was 4.3 × 10^4 (t: 0′) colony-forming units and the “number” value (500 ppm in agar, irradiated with xenon light, 10 minutes, incubated 37° C. about 48 hours) was 3.0 × 10^4 colony-forming units. For the same molecule, the “number” value (500 ppm in agar, irradiated with xenon light, 30 minutes, incubated 37° C. about 48 hours) was 1.5 × 10^2 colony-forming units.
